According to patent publication US5223526A, “Pyrazole carboxanilide fungicides and use” (Monsanto Company, priority 1992, dated 1993):

How the values were obtained:
succinate dehydrogenase = target: T1, succinate dehydrogenase (Botrytis cinerea, UniProt A0A384J5E4+A0A384J8V8+A0A384JHJ5); test: Enzyme inhibition: succinate dehydrogenase activity in Botrytis cinerea mitochondria (DCPIP reduction); type: biochemical; details: concentration required to inhibit the rate of DCPIP reduction by 50%; Botrytis cinerea isolate Nick mitochondria; read-out: I50 (μM conc.)
T1 construct: succinate-DCPIP reductase assay with KCN
Experimental: Mitochondria were isolated by a method adapted from G.A. White [Biochem. Biophys. Res. Commun. 44: 1212, 1971]. Twenty to thirty grams of Botrytis cinerea isolate Nick were resuspended in 250 mL 0.25M sucrose, 5mM Na4 EDTA, pH 7.0 (+) 0.15% (w/v) bovine serum albumin (BSA) and placed in a Bead Beater chamber (Biospec Products, Bartlesville, Ok.). Zirconium oxide beads (0.5mm) were added to finish filling the chamber. Four 30 second beats separated by 2 minute temperature equilibration periods in the cold were used to break the mycelia. A crude mitochondrial preparation was harvested from the homogenate by differential centrifugation at 4° C. and resuspended in BSA-free sucrose/EDTA media and used for SDH assays.
The succinate dehydrogenase activity was measured at 600 nm in 50 mM potassium phosphate, pH 7.2, 1 mM KCN, 45 μM 2,6-dichlorophenolindophenol (DCPIP) and 17 mM disodium succinate (final volume, 1 mL) with a Perkin-Elmer Lambda 7 ultraviolet-visible spectrophotometer. The test compounds were added as acetone solutions (final concentration of acetone, 1% (v/v)). The mitochondrial preparatons were used to initiate the reaction. All rates were corrected for endogenous activities minus succinate. Semilog plots of percentage inhibition versus test compound concentration were used to determine inhibition expressed as I50 (μM) which is the concentration required to inhibit the rate of DCPIP reduction by 50%. The commercial fungicide carboxin was used as standard throughout.

Botrytis cinerea [1] = test: Eggplant grey mold; type: in vivo; set-up: scale not given here; details: inoculated 24 h later, rated after 3-4 days; for Disease Control Rating at 20 ppm: eggplant sprayed with 20 ppm; for Disease Control Rating at 100 ppm: eggplant sprayed with 100 ppm; for Disease Control Rating at 500 ppm: eggplant sprayed with 500 ppm
Experimental: Eggplant seed are planted in 2.25" square pots, six per pot, and maintained in growth chambers set at 23° C., 80% humidity, and 12 h photoperiod. When the plants are at the cotyledon stage (14-18 days afterplanting), the plants are sprayed with 1.5 mL/pot of 500, 100 or 20 ppm 2:3 acetone:water (with 0.5% Tween® 20) formulations of the test compounds.
Twenty-four hours later the plants are inoculated with Botrytis cinerea, approximately 0.5 mL/pot of a 4×10^6 spore/mL suspension. The plantes are incubated at 23° C. and 100% humidity for 3-4 days, at which time disease control ratings are made based on presence and severity of Botrytis lesions.

Rhizoctonia solani = test: Rice sheath blight; type: in vivo; set-up: scale not given here; details: inoculated two days later, rated after 7 days, average of five plants; for Disease Control Rating at 0.5 mg/mL: foliage and soil sprayed with 0.5 mg/mL; for Disease Control Rating at 0.02 mg/mL: foliage and soil sprayed with 0.02 mg/mL; for Disease Control Rating at 0.1 mg/mL: foliage and soil sprayed with 0.1 mg/mL
Experimental: Rice plants, 11 to 15 days old, are grown in 7.65 cm^2 pots. Each plant in the treatment groups is treated by spraying both the foliage and the soil surface, each with 2 mL of a water/acetone/Tween®20 formulation containing 0.5, 0.1, or 0.02 mg/mL of Compound A. The pots are placed in flood trays which are filled with water to just below the soil line. Two days later, approximately two grams of Rhizoctonia solani inoculum, cultured on rice grain for four to eight weeks, is applied to the base of the rice plants in each pot. After 7 days in a 25° C. high humidity growth chamber, each plant is evaluated for the level of disease contro as compared to untreated controls by the following scale and the average of five plants per treatment level is calculated.

Botrytis cinerea [2] = test: Vine grey mold (grape berries); type: in vivo; details: average of six berries, 7-10 days; for pest or weed control at 50 ppm: grape berries treated with 50 ppm, read-out: % DISEASE CONTROL 50 ppm; for pest or weed control at 200 ppm: grape berries treated with 200 ppm, read-out: % DISEASE CONTROL 200 ppm
Experimental: Grape berries, which have been washed and surfaced sterilized in 70% ethanol for one minute, are, except for the negative controls, treated with 0.2 mL of a 2:3 acetone/water formulation (containing 0.05% Tween® 20) of 200 or 50 ppm of the test compounds and placed one per well in 12-well plates. Six berries per treatment level are used. Twenty-four hours later each berry is inoculated with Botrytis cinerea conidia, 0.2 mL of 10^6 spores/mL suspension. The plates are incubated at 20° C. with a 12 hours photoperiod for 7-10 days and the percent surface area infected with the disease is determined for each replicate using the values of 0, 1, 2, 5, 7, 10, 15, 20, 25, 30, 35, 40, 45, 50, 55, 60, 65, 70, 75, 80, 85, 90, 95, and 100%. Treatment means are calculated and percent disease control is determined by the formula [(control mean - treatment mean)/control means]×100.
Some of the compounds have been tested more than once and the results shown are the average of the number of tests reported.

T1 sequence (A0A384J5E4 1-300): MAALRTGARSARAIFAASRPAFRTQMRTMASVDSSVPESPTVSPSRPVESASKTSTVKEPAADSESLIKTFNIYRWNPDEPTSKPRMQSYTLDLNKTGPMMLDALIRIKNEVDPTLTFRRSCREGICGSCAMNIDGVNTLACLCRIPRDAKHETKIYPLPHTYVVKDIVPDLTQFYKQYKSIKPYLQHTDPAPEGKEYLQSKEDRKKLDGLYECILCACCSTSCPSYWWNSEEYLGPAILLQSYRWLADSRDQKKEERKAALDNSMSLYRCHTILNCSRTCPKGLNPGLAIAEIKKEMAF
T1 sequence (A0A384J8V8 1-189): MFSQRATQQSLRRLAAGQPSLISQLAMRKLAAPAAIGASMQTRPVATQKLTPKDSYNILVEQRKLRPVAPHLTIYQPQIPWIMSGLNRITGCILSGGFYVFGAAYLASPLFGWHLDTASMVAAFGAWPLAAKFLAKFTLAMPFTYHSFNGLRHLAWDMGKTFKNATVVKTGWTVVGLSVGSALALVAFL
T1 sequence (A0A384JHJ5 1-192): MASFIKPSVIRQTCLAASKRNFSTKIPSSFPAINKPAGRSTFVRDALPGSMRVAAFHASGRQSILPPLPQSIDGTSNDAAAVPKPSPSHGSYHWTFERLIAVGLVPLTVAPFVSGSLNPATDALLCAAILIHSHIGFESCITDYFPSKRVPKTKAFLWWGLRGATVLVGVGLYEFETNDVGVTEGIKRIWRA
T1 sequence (A0A384K456 1-647 partner): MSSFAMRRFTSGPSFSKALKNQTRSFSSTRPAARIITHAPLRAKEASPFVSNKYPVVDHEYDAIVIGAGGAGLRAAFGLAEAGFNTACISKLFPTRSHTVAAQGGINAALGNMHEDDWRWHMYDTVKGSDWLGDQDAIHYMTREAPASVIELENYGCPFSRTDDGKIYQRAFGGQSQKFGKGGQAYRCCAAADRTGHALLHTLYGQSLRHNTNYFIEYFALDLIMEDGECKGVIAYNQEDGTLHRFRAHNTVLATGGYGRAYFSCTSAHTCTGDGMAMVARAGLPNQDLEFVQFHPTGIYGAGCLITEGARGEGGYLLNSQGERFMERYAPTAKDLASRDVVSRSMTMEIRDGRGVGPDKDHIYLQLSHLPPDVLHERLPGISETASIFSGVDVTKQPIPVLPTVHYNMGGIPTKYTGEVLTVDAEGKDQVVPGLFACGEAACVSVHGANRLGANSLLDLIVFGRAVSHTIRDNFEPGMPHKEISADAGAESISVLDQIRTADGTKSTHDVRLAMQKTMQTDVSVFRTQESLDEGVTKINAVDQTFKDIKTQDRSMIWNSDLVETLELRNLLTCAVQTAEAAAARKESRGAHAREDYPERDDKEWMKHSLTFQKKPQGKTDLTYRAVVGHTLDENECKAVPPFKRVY

SMILES	IC50 (succinate dehydrogenase)	Disease Control Rating at 20 ppm (Botrytis cinerea [1])	Disease Control Rating at 100 ppm (Botrytis cinerea [1])	Disease Control Rating at 500 ppm (Botrytis cinerea [1])	Disease Control Rating at 0.5 mg/mL (Rhizoctonia solani)	pest or weed control at 50 ppm (Botrytis cinerea [2])	pest or weed control at 200 ppm (Botrytis cinerea [2])	Disease Control Rating at 0.02 mg/mL (Rhizoctonia solani)	Disease Control Rating at 0.1 mg/mL (Rhizoctonia solani)
Cn1cc(C(=O)Nc2ccccc2C2=CCCCC2C(C)(C)C)c(C(F)(F)F)n1 (centres unmarked) [Example 141, 1H-pyrazole-4-carboxamide, N-[2-[6-(1,1-dimethylethyl)-1-cyclohexen-1-yl]phenyl]-1-methyl-3-(trifluoromethyl)-]	0.049 µM	0	0	1	3	12%	12%	–	–
Cn1cc(C(=O)Nc2ccccc2C2CCCCC2)c(C(F)F)n1 [Example 1, 1H-pyrazole-4-carboxamide, N-(2-cyclohexylphenyl)-3-(difluoromethyl)-1-methyl-]	0.0095 µM	3	3	3	0	92%	94%	2	0
Cn1cc(C(=O)Nc2ccccc2C=C2CCCCCC2)c(C(F)(F)F)n1 [Example 143, 1H-pyrazole-4-carboxamide, N-[2-(cycloheptylidenemethyl)phenyl]-1-methyl-3-(trifluoromethyl)-]	0.025 µM	0	0	0	3	33%	36%	–	–
Cn1cc(C(=O)Nc2ccccc2OCCCC2CCCC2)c(C(F)F)n1 [Example 48, 1H-pyrazole-4-carboxamide, N-[2-(3-cyclopentylpropoxy)phenyl]-3-(difluoromethyl)-1-methyl-]	0.02 µM	–	–	0	2	10%	0%	–	–
Cc1ccc(OC2CCCCC2)c(NC(=O)c2cn(C)nc2C(F)(F)F)c1 [Example 97, 1H-pyrazole-4-carboxamide, N-[2-(cyclohexyloxy)-5-methylphenyl]-1-methyl-3-(trifluoromethyl)-]	0.59 µM	0	0	1	0	0%	1%	–	–
Cn1cc(C(=O)Nc2ccccc2C2CCCCCCC2)c(C(F)(F)F)n1 [Example 25, 1H-pyrazole-4-carboxamide, N-(2-cyclooctylphenyl)-1-methyl-3-(trifluoromethyl)-]	0.0011 µM	1	2	2	1	66%	78%	–	–
Cn1cc(C(=O)Nc2ccccc2C2CCC(C(C)(C)C)CC2)c(C(F)F)n1 (centres unmarked) [Example 134]	0.0047 µM	1	1	2	3	66%	61%	3	3
Cn1cc(C(=O)Nc2ccccc2C2CCCCC2)c([N+](=O)[O-])n1 [Example 62, 1H-pyrazole-4-carboxamide, N-(2-cyclohexylphenyl]-1-methyl-3-nitro-]	0.29 µM	0	0	1	0	0%	0%	–	–
CC1CC=C(c2ccccc2NC(=O)c2cn(C)nc2C(F)F)C1 (centres unmarked) [Example 149, 1H-pyrazole-4-carboxamide, N-[2-(4-methyl-1-cyclopenten-1-yl)phenyl]-1-methyl-3-(difluoromethyl)-]	0.013 µM	0	0	1	3	95%	100%	–	–
Cn1cc(C(=O)Nc2ccccc2C2=CCCCC2)c(C(F)F)n1 [Example 109, 1H-pyrazole-4-carboxamide, N-[2-(1-cyclohexen-1-yl)phenyl]-3-(difluoromethyl)-1-methyl-]	0.0072 µM	–	–	0	3	100%	100%	0	1
Cn1cc(C(=O)Nc2ccccc2C2CCCCCC2)c(C(F)(F)F)n1 [Example 10, 1H-pyrazole-4-carboxamide, N-(2-cycloheptylphenyl)-1-methyl-3-(trifluoromethyl)-]	0.003 µM	2	2	2	3	87%	85%	2	3
Cc1ccccc1NC(=O)c1c(C)nn(C)c1C [Compound H, N-(2-methylphenyl)-1,3,5-(trimethyl)-4-pyrazolecarboxamide, reference compound]	475 µM	–	–	0	0	5%	9%	–	–
C=C(c1ccccc1NC(=O)c1cn(C)nc1C(F)(F)F)C1CCCC1 [Example 34, 1H-pyrazole-4-carboxamide, N-[2-(1-cyclopentylethenyl)phenyl]-1-methyl-3-(trifluoromethyl)-]	0.0059 µM	0	2	2	3	44%	11%	2	3
Cn1cc(C(=O)Nc2cc(Br)cc(Br)c2C2CCCCC2)c(C(F)(F)F)n1 [Example 136, 1H-pyrazole-4-carboxamide, N-(3,5-dibromo-2-cyclohexylphenyl)-1-methyl-3-(trifluoromethyl)-]	–	0	0	1	0	7%	0%	–	–
